In patent publication US12194140B2, “Compositions for topical treatment of microbial infections” (Hennepin Life Sciences, priority 2012, dated 2025):

Key:
[1] = tested on: Streptococcus pneumoniae Serotype III; assay: Spectrum of antibacterial activity of GML; format: cell-based; conditions: optimal growth conditions; 2 strains tested
Escherichia coli = assay: Spectrum of antibacterial activity of GML; format: cell-based; conditions: optimal growth conditions; 2 strains tested
Bacillus cereus = assay: Spectrum of antibacterial activity of GML; format: cell-based; conditions: optimal growth conditions; 1 strain tested
Mycobacterial species = format: cell-based
[2] = tested on: Prevotella melaninogenica; assay: Spectrum of antibacterial activity of GML; format: cell-based; conditions: optimal growth conditions; 1 strain tested
Group F Streptococcus = assay: Spectrum of antibacterial activity of GML; format: cell-based; conditions: optimal growth conditions; 1 strain tested
Streptococcus suis = assay: Spectrum of antibacterial activity of GML; format: cell-based; conditions: optimal growth conditions; 1 strain tested
Pseudomonas aeruginosa = assay: Spectrum of antibacterial activity of GML; format: cell-based; conditions: optimal growth conditions; 1 strain tested
oral aerobic bacteria = assay: Decolonization of teeth and gum lines; format: in vivo, human; conditions: 5% GML gel on teeth and gum lines; thirty minutes after treatment
Description: Human volunteers were swabbed with a PBS-saturated swab across the teeth and gum lines on the left side of the mouth and tested for CFU/mL of total bacteria subsequently grown on blood agar plates. The same individuals were then swabbed with GML gel by swabbing the gel across the teeth and gum lines on the right side of the mouth. Enough gel was used to coat the entire surface area of the teeth and gum lines. Thirty minutes after treatment, the participants were swabbed with PBS-saturated swabs on the right side and total CFU/mL were determined. […] Bacterial counts on both sides of the teeth and gum lines were presumed to be approximately equal, and a pre-test swab confirmed that this was the case.

[3] = tested on: non-typable Haemophilus influenzae; format: cell-based
S. aureus MN8 = assay: Antibacterial activity of GML after pre-treatment with sterile culture fluid; format: cell-based; conditions: 24 hour assay
Haemophilus influenzae = assay: Effect of pH on GML activity; format: cell-based; conditions: 1 μg/mL GML
Description: A similar experiment was carried out to assess the effect of GML on the growth of Haemophilus influenzae at various pHs. 1 μg/mL GML had no effect on the growth of H. influenzae at a pH of 7.0 (FIG. 13).

[4] = tested on: S. aureus strains MN8, MNWH, MW2; assay: Biofilm formation in 96 well microtiter plates; format: cell-based
S. aureus = assay: Decolonization of anterior nares; format: in vivo, human; conditions: 5% w/v GML in non-aqueous gel
Description: A study was undertaken to assess the ability of GML (5% w/v), formulated in a non-aqueous gel, to decolonize the respiratory tract in humans, and to decolonize contaminated surgical incision sites in experimental rabbits.
Three human subjects underwent swabs of the anterior nares in order to assess whether GML was capable of decolonizing the respiratory tract. […] The swabs were rotated around each nare up to the nasal bone 3 times. Colony-forming units of microbes from swabs were determined by plate counts on blood agar and mannitol salt agar. The anterior nares were then treated in the same way with swabs that had been dipped one time in GML gel. The anterior nares of each participant were swabbed at designated time periods for up to 24 hours, and swabs were cultured for S. aureus and coagulase-negative staphylococci.

E. coli (Watson strain) = assay: Effect of pH on GML activity; format: cell-based; conditions: for bactericidal GML concentration: 24 hours
Description: An experiment was conducted to determine the effect of GML in the presence of various pH levels on the growth of E. coli. E. coli (Watson strain) was grown in Todd Hewitt media and adjusted to […]. Using acetate buffer, the pH of the cultures was adjusted to 5.0, 6.0, or 7.0. […] Samples were removed for enumeration of CFU/mL at 24 hours.

Enterococcus faecalis = assay: Spectrum of antibacterial activity of GML; format: cell-based; conditions: optimal growth conditions; 1 strain tested
Mycoplasma hominis = assay: Spectrum of antibacterial activity of GML; format: cell-based; conditions: optimal growth conditions; 1 strain tested
Gardnerella vaginalis = assay: GML in vegetable oil, growth in Todd Hewitt broth (CFU/mL); format: cell-based; conditions: GML in olive, 18 hours, 37° C.
H. influenzae biofilm = assay: Treatment of previously formed biofilms; format: cell-based; conditions: 48 hour biofilm; 500 μg/mL GML for 60 minutes at 37° C.
Description: Supernatants were removed and bactericidal activity was determined by measuring CFU/mL (FIG. 9, left; # significant reduction in mean absorbance at 595 nm compared to no GML control, p<0.01). Wells were then washed and stained with crystal violet as described above.

Listeria monocytogenes = assay: Spectrum of antibacterial activity of GML; format: cell-based; conditions: optimal growth conditions; 1 strain tested
Group C Streptococcus = assay: Spectrum of antibacterial activity of GML; format: cell-based; conditions: optimal growth conditions; 1 strain tested
Klebsiella pneunoniae = assay: Spectrum of antibacterial activity of GML; format: cell-based; conditions: optimal growth conditions; 1 strain tested
Clostridium perfringens = format: cell-based; conditions: optimal growth conditions; 1 strain tested
[5] = tested on: Bacillus anthracis Sterne; format: cell-based; conditions: optimal growth conditions; 1 strain tested
Staphylococcus aureus = assay: Spectrum of antibacterial activity of GML; format: cell-based; conditions: optimal growth conditions; 54 strains tested
Campylobacter jejuni = assay: Spectrum of antibacterial activity of GML; format: cell-based; conditions: optimal growth conditions; 1 strain tested
Mycobacterium phlei = assay: Spectrum of antibacterial activity of GML; format: cell-based; conditions: optimal growth conditions; 1 strain tested
[6] = tested on: Peptostreptococcus species; assay: Spectrum of antibacterial activity of GML; format: cell-based; conditions: optimal growth conditions; 1 strain tested

## Glycerol monolaurate [GML]
[1]
  Average Bactericidal Concentration of GML: 10 µg/mL
Escherichia coli
  Average Bactericidal Concentration of GML: Not Susceptible
Bacillus cereus
  Average Bactericidal Concentration of GML: 50 µg/mL
Mycobacterial species
  GML concentration at which organisms were killed: ≥ 50 µg/mL
[2]
  Average Bactericidal Concentration of GML: 50 µg/mL
Group F Streptococcus
  Average Bactericidal Concentration of GML: 20 µg/mL
Streptococcus suis
  Average Bactericidal Concentration of GML: 50 µg/mL
Pseudomonas aeruginosa
  Average Bactericidal Concentration of GML: Not Susceptible
Oral aerobic bacteria
  reduction in CFUs between pretreatment and post-treatment swabs: > 5 log
[3]
  GML concentration inhibiting biofilm formation (crystal violet, absorbance 595 nm): ≤ 1.0 µg/mL
  bactericidal GML concentration in the context of a biofilm (CFU/mL): 50 µg/mL
S. aureus MN8; pre-incubated overnight with sterile culture fluid from S. aureus MN8
  antibacterial activity of GML after pre-incubation: eliminated the antibacterial activity
S. aureus MN8; pre-incubated overnight with sterile culture fluid from S. pyogenes
  antibacterial activity of GML after pre-incubation: did not affect
Haemophilus influenzae; pH 6.0, 4, 8, and 24 hours
  effect on growth (CFU/mL): completely abrogated the growth
Haemophilus influenzae; pH 7.0
  effect on growth (CFU/mL): no effect
[4]; 24 or 48 hours
  fold lower GML concentration inhibiting biofilm formation (crystal violet, absorbance 595 nm) than necessary to inhibit bacterial growth: 10 fold
[4]; all three strains, 24 and 48 hours
  GML concentration at which growth was completely inhibited (CFU/mL): 500 µg/mL
S. aureus; swab, three subjects, all time-points up to 24 hour
  S. aureus counts in both nares after treatment: 0 CFU/mL
S. aureus; one subject
  S. aureus counts over 3 day test period: 0
E. coli (Watson strain); pH 5.0
  bactericidal GML concentration: 0.1 µg/mL
E. coli (Watson strain); pH 6.0
  bactericidal GML concentration: 50 µg/mL
E. coli (Watson strain); pH 7.0
  bactericidal GML concentration: > 5000 µg/mL
E. coli (Watson strain); pH 7.0 to 5.0
  increase in susceptibility to GML with each unit drop in pH: 500 times
Enterococcus faecalis
  Average Bactericidal Concentration of GML: 100 µg/mL
Mycoplasma hominis
  Average Bactericidal Concentration of GML: 1 µg/mL
Gardnerella vaginalis; palm or corn oil (all 3)
  GML concentration at which growth was completely or nearly completely inhibited: ≥ 20 µg/mL
Gardnerella vaginalis; palm or corn oil (all three)
  GML concentration at which CFU/mL were reduced: ≤ 10 µg/mL
H. influenzae biofilm
  bactericidal activity on previously formed biofilm (CFU/mL): killed
  biofilm material attached to the wells (crystal violet staining): nearly completely removed biofilm material
Listeria monocytogenes
  Average Bactericidal Concentration of GML: 50 µg/mL
Group C Streptococcus
  Average Bactericidal Concentration of GML: 30 µg/mL
Klebsiella pneunoniae
  Average Bactericidal Concentration of GML: Not Susceptible
Clostridium perfringens
  Average Bactericidal Concentration of GML: 1 µg/mL
[5]
  Average Bactericidal Concentration of GML: 50 µg/mL
Staphylococcus aureus
  Average Bactericidal Concentration of GML: 300 µg/mL
Campylobacter jejuni
  Average Bactericidal Concentration of GML: 1 µg/mL
Mycobacterium phlei
  Average Bactericidal Concentration of GML: 100 µg/mL
[6]
  Average Bactericidal Concentration of GML: 1 µg/mL
